Target: T1, porcine pancreatic α-amylase (Sus scrofa, UniProt P00690)
T1 construct: gene AMY2
T1 sequence (P00690 16-511): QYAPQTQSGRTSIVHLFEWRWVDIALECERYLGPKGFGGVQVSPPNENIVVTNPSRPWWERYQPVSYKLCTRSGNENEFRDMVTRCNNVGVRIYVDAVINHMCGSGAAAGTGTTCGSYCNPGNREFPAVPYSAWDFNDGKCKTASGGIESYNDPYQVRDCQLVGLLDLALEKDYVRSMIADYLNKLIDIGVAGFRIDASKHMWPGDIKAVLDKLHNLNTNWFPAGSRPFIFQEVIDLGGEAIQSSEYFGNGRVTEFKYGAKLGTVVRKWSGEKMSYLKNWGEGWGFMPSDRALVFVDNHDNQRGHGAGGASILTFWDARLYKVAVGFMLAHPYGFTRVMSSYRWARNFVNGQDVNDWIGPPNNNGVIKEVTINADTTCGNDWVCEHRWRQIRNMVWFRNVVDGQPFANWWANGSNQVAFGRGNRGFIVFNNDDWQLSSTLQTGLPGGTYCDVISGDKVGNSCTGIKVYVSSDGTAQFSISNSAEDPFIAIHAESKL
Experiment: fluorescence DQ starch hydrolysis assay (EnzChek Ultra Amylase kit)
Assay type: biochemical

| IC50 | SMILES |
| --- | --- |
| 12.2 µM | O=C(c1cc(O)cc(O)c1O)c1c(O)cc(O)cc1O [compound 6, garcimangophenone A] |
| 9.3 µM | O=C(c1cc(O)ccc1O)c1c(O)cc(O)cc1O[C@@H]1O[C@H](CO)[C@@H](O)[C@H](O)[C@H]1O [compound 7, garcimangophenone B] |
| 16.1 µM | CC(C)=CCc1c(O)cc2oc3c(/C=C\C(C)(C)O)c(O)c(O)c(CC=C(C)C)c3c(=O)c2c1O [compound 5, mangostanaxanthone VI] |
